Where a name gives a salt, the structure may show the parent alone.
Columns and labels:
[1] = tested on: C. elegans; assay: Body size analysis; type: in vivo, Caenorhabditis elegans
Method: […] The treatment plates included NGA with 0.5% (v/v) DMSO (vehicle control, Ctl), 250 μM SIH, or 200 μM Lip-1 (as described above).
Cohorts of approximately 100 animals were transferred into a 1.5 ml centrifuge tube containing 400 μL S-basal. Following a brief centrifugation excess S-basal was removed leaving the animals suspended in 50 μL. Animals were euthanized and straightened by a 15 second exposure to 60° C. (using a heated water bath). Samples were then mounted between glass slides and a cover slip and immediately imaged. Micrographs were collected using a Leica M80 stereomicroscope and Leica DFC290 HD 3 MP) digital camera. Pixel sizes were defined using a calibrated 25 μm grid slide (Microbrightfield, Inc). Size and shape metrics were extracted from brightfield images were analyzed using the WormSizer plugin for ImageJ.
Data of estimated adult body length and volume were initially assessed for normality using a D'Agostino & Pearson test. Based on this analysis a nonparametric Kruskal-Wallis Analysis of Variance (ANOVA) was performed followed by a Dunn-Šidák test for multiple comparisons (as implemented by Prism v7.0a, GraphPad Software). There was a significant difference between body length (H(10)=432.6, p<0.0001) amongst the groups measured.

[2] = tested on: E. coli (strain OP50); assay: Disk diffusion test; type: cell-based, Escherichia coli
Text: C. elegans are bacteriophores and the E. coli (OP50) monoxenic diet can colonize the pharynx and intestine, resulting in death. Consequently, antibiotics are known to extend C. elegans lifespan. In addition, iron chelating compounds, such as EDTA have been reported to have antibiotic properties.

[3] = tested on: Hydroxynonenal (4-HNE) protein adducts; assay: Lipid peroxidation: 4-HNE protein adducts (immunoblot); type: in vivo, Caenorhabditis elegans; conditions: qualitative
Method: Analysis of Hydroxynonenal (4-HNE) protein adducts was also used as a proxy for lipid peroxidation. Duplicate samples of 50 and 200 worms were collected and washed twice in S-basal^o pelleted by centrifugation and the supernatant discarded. These samples (^˜30 μL) were frozen in liquid-N2 and stored at −80° C. until needed. To each sample an 10 μL 4× Bolt LDS sample buffer (Invitrogen) and 3 μL TCEP (Invitrogen) was added and the sample heated to 95° C. for 10 min. Lysates were loaded onto NuPAGE™ 4-12% Bis-Tris acrylamide gels (1.0 mm^o 10-well^o Invitrogen)^o electrophoresed with MES running buffer and then transferred onto 0.45 μm PVDF membrane by electroblot using a Mini Blot module (Invitrogen). 4-HNE protein adducts were detected by an anti 4-HNE protein adduct antibody (1:2000^o AB5605^o Millipore) in Tris-buffer saline with 5% skim milk^o and ECL (GE Healthcare). The membranes were stripped using a 1× ReBlot Strong Antibody Stripping Solution (Merck) for 15 min^o reprobed for tubulin using an anti-Tubulin antibody (1:10^o000^oT6074^o Sigma-Aldrich).

[4] = tested on: C. elegans; conditions: DEM at 10-100 μM, minor glutathione loss; cited from earlier work
[5] = tested on: C. elegans; assay: Temporal rescaling by temperature: lifespan at 20° C. and 25° C.; type: in vivo, Caenorhabditis elegans
Method: The effect of temperature is evaluated separately for control and SIH treated worms, population sizes for each replicate are shown in Table 20.
For each of two replicates and treatment factors, the AFT model with Weibull baseline hazard was fitted with temperature as the covariate. The residuals from this model were then subjected to the K-S test.
For both populations, being exposed to the higher temperature of 25° C. accelerates life as expected, by approximately 30% for control worms (Otemp=0.72 (95% Cl: 0.68; 0.77) and 20% for SIH worms (Otemp=0.81 (95% Cl: 0.78; 0.84).

[6] = tested on: C. elegans; assay: Antibiotic tests: lifespan with ampicillin co-administration; type: in vivo, Caenorhabditis elegans
Method: To determine whether the increased lifespan seen with SIH treatment could be explained solely by an antibiotic effect of iron reduction, nematodes were treated with ampicillin, with and without SIH co-administration. Even in the presence of ampicillin, SIH increased median lifespan by 6 days, similar to its benefits in the absence of ampicillin (median increase of 7 days).

[7] = tested on: C. elegans iron-proteome; assay: Size exclusion chromatography-ICP-MS of soluble iron; type: in vivo, Caenorhabditis elegans; conditions: aged C. elegans (10 days post adulthood)
Method: Liquid chromatography was performed using established protocols. Briefly^o samples of aged C. elegans were lysed using a Bioruptor Next Gen (Diagenode) bath sonicator set on HIGH and cooled to 4° C. using 10 cycles of 10 sec ON and 10 sec OFF^o in a 1:1 volume ratio of Tris-buffered saline (pH 8.0) with added proteinase inhibitors (EDTA-free; Roche). Sample homogenization was confirmed by microscopic inspection. Lysates were then centrifuged for 15 min at 175^o000 g at 4° C. The supernatant was removed and total protein concentration in the soluble fraction was determined using a NanoDrop UV spectrometer (Thermo Fisher Scientific) before being transferred to standard chromatography vials with polypropylene inserts (Agilent Technologies) and kept at 4° C. on a Peltier cooler for analysis. Size exclusion chromatography-inductively coupled plasma-mass spectrometry was performed using an Agilent Technologies 1100 Series liquid chromatography system with a BioSEC 5 SEC column (5 μm particle size^o 300 Å pore size^o I.D. 4.6 mm^o Agilent Technologies) and 7700× Series ICP-MS as previously described (Hare et al.^o 2016b). A buffer of 200 mM NH4NO3 was used for all separations at a flow rate of 0.4 mL min^−1. A total of 50 μg of soluble protein was loaded onto the column by manually adjusting the injection volume for each sample. Mass-to-charge ratios (m/z) for phosphorus (31) and iron (56) were monitored in time resolved analysis mode. Plots of the mean (±standard deviation) of three independent biological replicates are shown. Integration of the three major peaks was performed using Prism (ver. 7 for Mac OS X, Graphpad).

Row | SMILES | length or volume ([1]; in vivo) | inhibition of E. coli (strain OP50) growth [2] | increase in 4-HNE protein adducts with age [3] | effect on lifespan as reported [4] | lifespan extension at two temperatures [5] | lifespan extension on co-administration ([6]; SIH and the antibiotic ampicillin co-administered) | increase of median lifespan ([6]; SIH in the absence of ampicillin) [days] | increase of median lifespan ([6]; SIH in the presence of ampicillin) [days] | body volume ([1]; Day 4) | body length, mean±SD ([1]; Day 8, control 1440±123 μm, p<0.001) [μm] | body length versus similarly aged controls ([1]; after 4 days and 8 days of intervention) | body volume over time ([1]; in vivo) | Ferritin-bound iron, normalized peak area [7] | iron associated with the LMW peak, normalized peak area [7] | iron bound within HMW species [7]
1 | Clc1cccc(CNC2=Nc3ccccc3NC23CCNCC3)c1 [Lip-1, N-[(3-chlorophenyl)methyl]-spiro[piperidine-4,2′(1′H)-quinoxalin]-3′-amine] | no effect on length or volume | no evidence for inhibition | suppressed |  |  |  |  |  |  |  |  |  |  |  | 
2 | CCOC(=O)/C=C\C(=O)OCC [DEM, Diethyl maleate] |  |  |  | increasing lifespan via hormesis |  |  |  |  |  |  |  |  |  |  | 
3 | O=C(N/N=C/c1ccccc1O)c1ccncc1 [SIH, Salicylaldehyde isonicotinoyl hydrazone] |  | no evidence for inhibition | suppressed |  | still extended lifespan by a similar dimension | additive effect on media lifespan extension | 7 | 6 | greater volume than both control and Lip-1 treated worms | 1696±64 | significantly longer | increase in body volume between Days 1 and 4, but not thereafter | approximately 50% | approximately 40% | unaffected

— patent publication US20230172940A1, “METHODS OF EXTENDING LIFESPAN BY ADMINISTERING FERROPTOSIS INHIBITORS” (COLLABORATIVE MEDICINAL DEVELOPMENT, LLC, priority 2020, published 2023)
